From patent US11034672B1, “Tyrosine kinase inhibitor compositions, methods of making and methods of use” (Black Diamond Therapeutics, Inc., priority 2018, dated 2021)

Legend:
Type in all cases: cell-based
[1] = target: T1, HER2 WT (Homo sapiens, UniProt P04626); assay: Activity for inhibiting HER2 (Table B), HER2 WT
[2] = target: T2, EGFR V3 (Homo sapiens, UniProt P00533, DELINS30-297G); assay: BaF3 cell proliferation assay, EGFR V3 (Table A); settings: potency code, 3 days, CellTiterGlo, read-out: EGFR V3 (Activity for Inhibiting EGFR)
T2 construct: expressed in transfected cells; host or cells: BaF3 (murine pro-B), retroviral pMXs-IRES-Blasticidin
Method in brief: (§1)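 BaF3 + retroviral EGFR/HER2 mutant (two rounds of spinfection, 8 μg/ml polybrene); 10 μg/ml Blasticidin selection 1 wk; IL-3 withdrawn to select IL-3-independent growth. EC50 from cell proliferation.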

[3] = target: T3, HER2 S310F (Homo sapiens, UniProt P04626, S310F); assay: Activity for inhibiting HER2 (Table B), HER2 S310F; settings: read-out: HER2 S310F, potency code (IC50)
T3 construct: expressed in transfected cells; host or cells: BaF3 (murine pro-B)
Method: (§2) EC50 values were determined with the same application.

[4] = target: T1, HER2 WT; assay: BaF3 cell proliferation assay, HER2 WT (Table B); settings: potency code, 3 days, CellTiterGlo, read-out: HER2 WT (Activity for Inhibiting HER2)
[5] = target: T2, EGFR V3; assay: Activity for inhibiting EGFR (Table A), EGFR V3 (EGFR-Viii); settings: read-out: EGFR V3, potency code (IC50)
[6] = target: T4, EGFR WT (Homo sapiens, UniProt P00533); assay: Activity for inhibiting EGFR (Table A), EGFR WT; settings: read-out: EGFR WT, potency code (IC50)
[7] = target: T4, EGFR WT; assay: BaF3 cell proliferation assay, EGFR WT (Table A); settings: potency code, 3 days, CellTiterGlo, read-out: EGFR WT (Activity for Inhibiting EGFR)
Method in brief: as §1

[8] = target: T3, HER2 S310F; assay: BaF3 cell proliferation assay, HER2 S310F (Table B); settings: potency code, 3 days, CellTiterGlo, read-out: HER2 S310F (Activity for Inhibiting HER2)
[9] = target: T5, HER2 YVMA (Homo sapiens, UniProt P04626, INS775YVMA); assay: Activity for inhibiting HER2 (Table B), HER2 YVMA; settings: read-out: HER2 YVMA, potency code (IC50)
T5 construct: expressed in transfected cells; host or cells: BaF3 (murine pro-B)
Method: as §2

[10] = target: T5, HER2 YVMA; assay: BaF3 cell proliferation assay, HER2 YVMA (Table B); settings: potency code, 3 days, CellTiterGlo, read-out: HER2 YVMA (Activity for Inhibiting HER2)
[11] = Table B, read-out: HER2 WT, potency code (IC50)
[12] = text lists of compounds, read-out: IC50 value for inhibiting wild-type HER2

T2 sequence (P00533 with tags, fused parts or gaps DELINS30-297G): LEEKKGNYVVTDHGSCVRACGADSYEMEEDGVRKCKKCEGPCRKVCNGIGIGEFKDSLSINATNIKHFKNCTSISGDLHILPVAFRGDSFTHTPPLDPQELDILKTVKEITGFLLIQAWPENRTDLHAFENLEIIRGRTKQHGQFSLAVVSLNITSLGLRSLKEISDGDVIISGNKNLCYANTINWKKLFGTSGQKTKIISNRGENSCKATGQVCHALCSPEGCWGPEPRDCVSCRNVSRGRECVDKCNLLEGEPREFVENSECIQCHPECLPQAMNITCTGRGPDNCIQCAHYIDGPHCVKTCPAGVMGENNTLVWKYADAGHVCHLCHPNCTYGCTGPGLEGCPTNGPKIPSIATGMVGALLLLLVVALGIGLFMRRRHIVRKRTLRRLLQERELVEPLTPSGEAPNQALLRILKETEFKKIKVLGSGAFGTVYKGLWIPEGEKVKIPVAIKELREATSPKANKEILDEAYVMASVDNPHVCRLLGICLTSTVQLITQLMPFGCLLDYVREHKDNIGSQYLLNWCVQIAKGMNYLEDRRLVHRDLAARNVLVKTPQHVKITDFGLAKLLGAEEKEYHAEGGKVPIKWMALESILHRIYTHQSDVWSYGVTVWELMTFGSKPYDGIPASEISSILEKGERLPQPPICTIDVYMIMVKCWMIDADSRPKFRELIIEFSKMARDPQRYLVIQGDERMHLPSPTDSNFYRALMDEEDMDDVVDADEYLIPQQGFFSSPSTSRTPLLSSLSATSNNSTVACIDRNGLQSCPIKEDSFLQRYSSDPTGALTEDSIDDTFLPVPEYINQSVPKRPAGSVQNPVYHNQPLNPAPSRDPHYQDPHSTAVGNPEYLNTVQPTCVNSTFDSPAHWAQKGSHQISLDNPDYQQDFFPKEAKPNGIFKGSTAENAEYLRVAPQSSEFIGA
T3 sequence (P04626 23-1255 S310F): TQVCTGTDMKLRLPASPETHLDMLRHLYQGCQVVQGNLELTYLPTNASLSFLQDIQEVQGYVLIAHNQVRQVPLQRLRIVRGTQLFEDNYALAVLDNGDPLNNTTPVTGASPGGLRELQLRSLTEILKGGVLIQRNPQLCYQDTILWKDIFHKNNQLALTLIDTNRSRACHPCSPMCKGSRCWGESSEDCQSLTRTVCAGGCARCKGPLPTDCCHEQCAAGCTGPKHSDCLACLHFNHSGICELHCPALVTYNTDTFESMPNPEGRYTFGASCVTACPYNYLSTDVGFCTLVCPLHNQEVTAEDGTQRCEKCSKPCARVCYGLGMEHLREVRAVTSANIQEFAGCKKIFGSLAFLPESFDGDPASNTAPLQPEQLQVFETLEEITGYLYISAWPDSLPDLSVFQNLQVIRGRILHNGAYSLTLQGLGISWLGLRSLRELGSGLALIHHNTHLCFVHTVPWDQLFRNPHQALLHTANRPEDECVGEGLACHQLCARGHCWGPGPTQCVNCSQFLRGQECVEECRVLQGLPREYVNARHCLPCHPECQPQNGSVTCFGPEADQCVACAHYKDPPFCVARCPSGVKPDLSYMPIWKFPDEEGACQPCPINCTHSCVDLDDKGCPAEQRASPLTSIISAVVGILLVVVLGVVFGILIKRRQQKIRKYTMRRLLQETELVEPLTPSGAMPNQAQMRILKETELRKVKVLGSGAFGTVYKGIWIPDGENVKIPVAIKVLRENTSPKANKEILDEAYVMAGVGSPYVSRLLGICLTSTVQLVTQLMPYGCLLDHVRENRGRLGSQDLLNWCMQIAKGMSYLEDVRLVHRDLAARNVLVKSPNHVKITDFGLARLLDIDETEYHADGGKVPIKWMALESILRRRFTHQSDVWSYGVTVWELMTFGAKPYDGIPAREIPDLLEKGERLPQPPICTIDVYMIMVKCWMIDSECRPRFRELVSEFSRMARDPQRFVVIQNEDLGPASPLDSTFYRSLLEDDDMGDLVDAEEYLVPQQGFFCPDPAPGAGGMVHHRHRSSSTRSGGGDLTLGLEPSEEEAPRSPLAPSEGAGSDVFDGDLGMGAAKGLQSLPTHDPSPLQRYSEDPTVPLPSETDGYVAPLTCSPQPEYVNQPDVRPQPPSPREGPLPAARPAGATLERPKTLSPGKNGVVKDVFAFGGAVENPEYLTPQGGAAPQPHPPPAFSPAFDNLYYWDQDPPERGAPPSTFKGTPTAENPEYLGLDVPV
T4 sequence (P00533 25-1210 N540K): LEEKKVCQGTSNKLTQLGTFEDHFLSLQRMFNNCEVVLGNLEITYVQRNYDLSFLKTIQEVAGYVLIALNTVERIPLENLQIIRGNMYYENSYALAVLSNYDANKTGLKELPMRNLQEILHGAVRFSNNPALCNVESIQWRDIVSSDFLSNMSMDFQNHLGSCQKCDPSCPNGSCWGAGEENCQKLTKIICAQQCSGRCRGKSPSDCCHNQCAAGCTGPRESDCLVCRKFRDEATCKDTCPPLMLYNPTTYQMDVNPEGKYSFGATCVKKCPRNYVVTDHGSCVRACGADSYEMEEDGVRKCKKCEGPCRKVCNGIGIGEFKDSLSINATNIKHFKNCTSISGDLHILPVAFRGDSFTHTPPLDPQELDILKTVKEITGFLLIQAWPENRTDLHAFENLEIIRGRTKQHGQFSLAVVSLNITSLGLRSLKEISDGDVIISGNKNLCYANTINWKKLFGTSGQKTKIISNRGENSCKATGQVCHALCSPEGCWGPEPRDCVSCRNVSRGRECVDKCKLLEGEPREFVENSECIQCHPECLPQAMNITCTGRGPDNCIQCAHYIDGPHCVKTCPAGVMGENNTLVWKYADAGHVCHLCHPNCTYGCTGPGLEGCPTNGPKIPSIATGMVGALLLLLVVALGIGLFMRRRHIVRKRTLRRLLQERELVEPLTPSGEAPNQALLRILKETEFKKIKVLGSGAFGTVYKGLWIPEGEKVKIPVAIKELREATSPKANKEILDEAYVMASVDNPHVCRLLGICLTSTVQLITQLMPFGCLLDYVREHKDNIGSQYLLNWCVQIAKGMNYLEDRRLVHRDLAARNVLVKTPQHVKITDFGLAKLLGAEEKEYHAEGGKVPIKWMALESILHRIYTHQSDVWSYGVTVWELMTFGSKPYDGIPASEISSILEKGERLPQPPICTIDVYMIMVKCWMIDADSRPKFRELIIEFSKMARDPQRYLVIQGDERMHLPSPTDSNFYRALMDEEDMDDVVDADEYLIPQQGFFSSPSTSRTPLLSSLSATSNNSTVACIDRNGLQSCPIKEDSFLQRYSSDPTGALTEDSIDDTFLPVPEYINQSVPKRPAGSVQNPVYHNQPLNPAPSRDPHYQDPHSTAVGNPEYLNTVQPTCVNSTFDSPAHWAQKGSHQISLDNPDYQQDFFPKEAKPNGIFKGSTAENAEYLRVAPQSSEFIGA
T5 sequence (P04626 with tags, fused parts or gaps INS775YVMA): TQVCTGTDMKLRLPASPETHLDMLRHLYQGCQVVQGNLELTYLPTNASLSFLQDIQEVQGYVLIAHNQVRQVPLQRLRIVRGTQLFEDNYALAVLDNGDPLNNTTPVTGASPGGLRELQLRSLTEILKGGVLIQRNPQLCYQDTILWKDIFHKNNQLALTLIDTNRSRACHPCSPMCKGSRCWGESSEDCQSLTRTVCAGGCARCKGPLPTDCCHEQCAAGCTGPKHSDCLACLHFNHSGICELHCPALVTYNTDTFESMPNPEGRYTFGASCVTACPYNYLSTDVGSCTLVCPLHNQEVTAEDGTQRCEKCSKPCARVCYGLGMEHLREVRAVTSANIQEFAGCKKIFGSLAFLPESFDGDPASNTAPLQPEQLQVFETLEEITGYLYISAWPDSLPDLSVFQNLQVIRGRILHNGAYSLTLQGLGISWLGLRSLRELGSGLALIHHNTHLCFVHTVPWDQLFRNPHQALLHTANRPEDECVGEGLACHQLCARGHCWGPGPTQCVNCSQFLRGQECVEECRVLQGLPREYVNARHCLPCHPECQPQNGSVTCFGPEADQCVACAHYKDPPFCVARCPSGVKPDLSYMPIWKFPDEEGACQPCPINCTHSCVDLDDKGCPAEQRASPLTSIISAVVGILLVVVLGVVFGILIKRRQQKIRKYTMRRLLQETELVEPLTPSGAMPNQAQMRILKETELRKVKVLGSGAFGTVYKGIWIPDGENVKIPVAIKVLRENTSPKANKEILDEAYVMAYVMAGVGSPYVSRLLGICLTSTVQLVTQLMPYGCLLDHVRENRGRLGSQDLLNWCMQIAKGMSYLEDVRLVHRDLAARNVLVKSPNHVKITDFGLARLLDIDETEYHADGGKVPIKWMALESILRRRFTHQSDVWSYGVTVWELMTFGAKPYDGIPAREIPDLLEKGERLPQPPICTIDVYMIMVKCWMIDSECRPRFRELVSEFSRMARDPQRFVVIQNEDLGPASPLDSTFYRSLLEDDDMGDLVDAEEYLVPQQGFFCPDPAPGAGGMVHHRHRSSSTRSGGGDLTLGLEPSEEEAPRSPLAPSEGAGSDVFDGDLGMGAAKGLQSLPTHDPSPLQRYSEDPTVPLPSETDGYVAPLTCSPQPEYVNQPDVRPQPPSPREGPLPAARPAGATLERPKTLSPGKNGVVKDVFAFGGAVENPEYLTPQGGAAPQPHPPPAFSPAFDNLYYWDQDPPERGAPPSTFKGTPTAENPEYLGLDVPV

| IC50 [1, 11] | IC50 [2] | IC50 [3] | IC50 [4] | IC50 [5] | IC50 [6] | IC50 [7] | IC50 [8] | IC50 [1, 12] | IC50 [9] | IC50 [10] | Structure (SMILES) |
| --- | --- | --- | --- | --- | --- | --- | --- | --- | --- | --- | --- |
| 100 to 200 nM | 200 to 300 nM | 300 to 500 nM | 100 to 200 nM | 200 to 300 nM | > 1000 nM | > 1000 nM | 300 to 500 nM | – | – | – | C=CC(=O)Nc1cc2c(Nc3ccc(OCc4ccccn4)c(Cl)c3)ncnc2cc1N(C)C1CCN(C)C1 (centres unmarked) [compound 48] |
| 50 to 100 nM | 100 to 200 nM | 300 to 500 nM | 50 to 100 nM | 100 to 200 nM | 300 to 500 nM | 300 to 500 nM | 300 to 500 nM | – | – | – | C=CC(=O)Nc1cc2c(Nc3ccc(OCc4ccccn4)c(Cl)c3)ncnc2cc1N1CC(N2CCOCC2)C1 [compound 44] |
| 50 to 100 nM | 100 to 200 nM | 100 to 200 nM | 50 to 100 nM | 100 to 200 nM | > 1000 nM | > 1000 nM | 100 to 200 nM | – | – | – | C=CC(=O)Nc1cc2c(Nc3ccc(OCc4ccccn4)c(Cl)c3)ncnc2cc1N1CCN2CCC1C2 (centres unmarked) [compound 43] |
| 10 to 20 nM | 200 to 300 nM | 100 to 200 nM | 10 to 20 nM | 200 to 300 nM | 300 to 500 nM | 300 to 500 nM | 100 to 200 nM | ≤ 20 nM | – | – | C=CC(=O)Nc1cc2c(Nc3ccc(OCc4ccccn4)c(Cl)c3)ncnc2cc1OC1CCNC1 (centres unmarked) [compound 15] |
| 50 to 100 nM | 100 to 200 nM | 100 to 200 nM | 50 to 100 nM | 100 to 200 nM | > 1000 nM | > 1000 nM | 100 to 200 nM | – | – | – | C=CC(=O)Nc1cc2c(Nc3ccc(OCc4ccccn4)c(Cl)c3)ncnc2cc1N1CC2CCN(C)C2C1 (centres unmarked) [compound 49] |
| – | 50 to 100 nM | 50 to 100 nM | – | 50 to 100 nM | > 1000 nM | > 1000 nM | 50 to 100 nM | – | 200 to 300 nM | 200 to 300 nM | C=CC(=O)Nc1cc2c(Nc3ccc(OCc4ccccn4)c(Cl)c3)ncnc2cc1OCC1(N)CC1 [compound 55] |
| – | 30 to 50 nM | 30 to 50 nM | – | 30 to 50 nM | 500 to 1000 nM | 500 to 1000 nM | 30 to 50 nM | – | 200 to 300 nM | 200 to 300 nM | C=CC(=O)Nc1cc2c(Nc3ccc(OCc4ccccn4)c(Cl)c3)ncnc2cc1OCC1CCN1C (centres unmarked) [compound 116, N-(4-((3-chloro-4-(pyridin-2-ylmethoxy)phenyl)amino)-7-((1-methylazetidin-2-yl)methoxy)quinazolin-6-yl)acrylamide] |
| – | 100 to 200 nM | 20 to 30 nM | – | 100 to 200 nM | 500 to 1000 nM | 500 to 1000 nM | 20 to 30 nM | – | 100 to 200 nM | 100 to 200 nM | C=CC(=O)Nc1cc2c(Nc3ccc(OCc4ccccn4)c(Cl)c3)ncnc2cc1C#C[C@H]1CCNC1 [compound 86, N-(4-((3-chloro-4-(pyridin-2-ylmethoxy)phenyl)amino)-7-(pyrrolidin-3-ylethynyl)quinazolin-6-yl)acrylamide] |
| – | 30 to 50 nM | 30 to 50 nM | – | 30 to 50 nM | 200 to 300 nM | 200 to 300 nM | 30 to 50 nM | – | 50 to 100 nM | 50 to 100 nM | C=CC(=O)Nc1cc2c(Nc3ccc(OCc4ccccn4)c(Cl)c3)ncnc2cc1OCCN1CC2(CCN2C)C1 [compound 115] |
| – | 50 to 100 nM | 30 to 50 nM | – | 50 to 100 nM | 200 to 300 nM | 200 to 300 nM | 30 to 50 nM | – | 100 to 200 nM | 100 to 200 nM | C=CC(=O)Nc1cc2c(Nc3ccc(OCc4ccccn4)c(Cl)c3)ncnc2cc1OCCN1CCC(N(C)C)CC1 [compound 76] |
| – | 30 to 50 nM | 30 to 50 nM | – | 30 to 50 nM | 300 to 500 nM | 300 to 500 nM | 30 to 50 nM | – | 50 to 100 nM | 50 to 100 nM | C=CC(=O)Nc1cc2c(Nc3ccc(OCc4ccccn4)c(Cl)c3)ncnc2cc1C#CC12CCN(CC1)CC2 [compound 126, N-(4-((3-chloro-4-(pyridin-2-ylmethoxy)phenyl)amino)-7-(quinuclidin-4-ylethynyl)quinazolin-6-yl)acrylamide] |

More lines, now with the values behind:

| Structure (SMILES) | IC50 [1, 11] | IC50 [2] | IC50 [3] | IC50 [4] | IC50 [5] | IC50 [6] | IC50 [7] | IC50 [8] | IC50 [1, 12] | IC50 [9] | IC50 [10] |
| --- | --- | --- | --- | --- | --- | --- | --- | --- | --- | --- | --- |
| C=CC(=O)Nc1cc2c(Nc3ccc(OCc4cccc(C(F)(F)F)n4)c(Cl)c3)ncnc2cc1OCCN1CCOCC1 [compound 23] | 100 to 200 nM | 100 to 200 nM | 100 to 200 nM | 100 to 200 nM | 100 to 200 nM | > 1000 nM | > 1000 nM | 100 to 200 nM | – | – | – |
| C=CC(=O)Nc1cc2c(Nc3ccc(OCc4cccc(F)c4)c(Cl)c3)ncnc2cc1N(C)CCN1CCOCC1 [compound 2] | 100 to 200 nM | 50 to 100 nM | 300 to 500 nM | 100 to 200 nM | 50 to 100 nM | > 1000 nM | > 1000 nM | 300 to 500 nM | – | – | – |
| CC#CC(=O)Nc1cc2c(Nc3ccc(OCc4ccccn4)c(Cl)c3)ncnc2cc1N(C)CCN1CCOCC1 [compound 4] | 20 to 30 nM | 50 to 100 nM | 50 to 100 nM | 20 to 30 nM | 50 to 100 nM | 200 to 300 nM | 200 to 300 nM | 50 to 100 nM | ≤ 50 nM | – | – |
| C=CC(=O)Nc1cc2c(Nc3ccc(Oc4cccc(Cl)c4)cc3)ncnc2cc1OCCN1CCOCC1 [compound 37] | 50 to 100 nM | 100 to 200 nM | 50 to 100 nM | 50 to 100 nM | 100 to 200 nM | > 1000 nM | > 1000 nM | 50 to 100 nM | – | – | – |
| C=CC(=O)Nc1cc2c(Nc3ccc(OCc4ccccn4)cc3)ncnc2cc1OCCn1ccnc1 [compound 9] | 10 to 20 nM | 50 to 100 nM | 100 to 200 nM | 10 to 20 nM | 50 to 100 nM | 500 to 1000 nM | 500 to 1000 nM | 100 to 200 nM | ≤ 20 nM | – | – |
| C=CC(=O)Nc1cc2c(Nc3ccc(Oc4ccc(Cl)cc4)cc3)ncnc2cc1OCCN1CCOCC1 [compound 74] | 100 to 200 nM | 50 to 100 nM | 200 to 300 nM | 100 to 200 nM | 50 to 100 nM | > 1000 nM | > 1000 nM | 200 to 300 nM | – | – | – |
| C=CC(=O)Nc1cc2c(Nc3ccc(OCc4ccccn4)c(Cl)c3)ncnc2cc1N(C)CCCN1CCOCC1 [compound 12] | 50 to 100 nM | 100 to 200 nM | 100 to 200 nM | 50 to 100 nM | 100 to 200 nM | 500 to 1000 nM | 500 to 1000 nM | 100 to 200 nM | – | – | – |
| C=CC(=O)Nc1cc2c(Nc3ccc(OCc4ccccn4)cc3F)ncnc2cc1OC1CCN(C)C1 (centres unmarked) [compound 59] | 30 to 50 nM | 30 to 50 nM | 100 to 200 nM | 30 to 50 nM | 30 to 50 nM | 300 to 500 nM | 300 to 500 nM | 100 to 200 nM | ≤ 50 nM | – | – |
| C=CC(=O)Nc1cc2c(Nc3ccc(OCc4ccccn4)cn3)ncnc2cc1OCCN1CCOCC1 [compound 58] | 100 to 200 nM | 200 to 300 nM | 300 to 500 nM | 100 to 200 nM | 200 to 300 nM | > 1000 nM | > 1000 nM | 300 to 500 nM | – | – | – |
| C=CC(=O)Nc1cc2c(Nc3ccc(OCc4ccccn4)cc3)ncnc2cc1OCCN1CC2CN(C)CC2C1 (centres unmarked) [compound 81] | – | 100 to 200 nM | 100 to 200 nM | – | 100 to 200 nM | 200 to 300 nM | 200 to 300 nM | 100 to 200 nM | ≤ 50 nM | > 1000 nM | > 1000 nM |
| CC#CC(=O)Nc1cc2c(Nc3ccc(Oc4ccccc4)cc3)ncnc2cc1C#C[C@@H]1[C@H]2CN(C)C[C@@H]12 [compound 108, N-(7-(((1R,5S,6s)-3-methyl-3-azabicyclo[3.1.0]hexan-6-yl)ethynyl)-4-((4-phenoxyphenyl)amino)quinazolin-6-yl)but-2-ynamide] | – | 100 to 200 nM | 50 to 100 nM | – | 100 to 200 nM | 500 to 1000 nM | 500 to 1000 nM | 50 to 100 nM | – | 500 to 1000 nM | 500 to 1000 nM |
| C=CC(=O)Nc1cc2c(Nc3ccc(OCc4ccnc(C)c4)c(Cl)c3)ncnc2cc1OCCN1CCOCC1 [compound 142] | – | 100 to 200 nM | 300 to 500 nM | – | 100 to 200 nM | 500 to 1000 nM | 500 to 1000 nM | 300 to 500 nM | – | > 1000 nM | > 1000 nM |
| C=CC(=O)Nc1cc2c(Nc3ccc(OCc4cccc(F)n4)c(Cl)c3)ncnc2cc1OCCN1CC(OC)C1 [compound 157] | – | 30 to 50 nM | 30 to 50 nM | – | 30 to 50 nM | 500 to 1000 nM | 500 to 1000 nM | 30 to 50 nM | – | 300 to 500 nM | 300 to 500 nM |
